According to patent US4093714A, “9β-D-Arabinofuranosylpurine nucleotides and method of use” (ICN Pharmaceuticals, Inc., priority 1974, dated 1978):
Like-named read-outs stand apart in the source and are kept apart here.

Legend:
[1] = cited from earlier work
Vaccinia Virus = type: cell-based; conditions: cell culture, three days, VR >0.5 definite, <0.5 slight antiviral activity
[2] = test system: Type 1 Herpes Simplex Virus; type: cell-based; conditions: cell culture, three days, VR >0.5 definite, <0.5 slight antiviral activity
[3] = test system: Herpes simplex, strain 123; assay: Anti-herpes encephalitis activity in mice, intraperitoneal treatment; conditions: for Percent Survivor Number Increase: twice daily for 8 days from 4 hr post virus, 21 days; for Survivor Increase P: probability value (chi square analysis)
[4] = clinical testing as antiviral agent; cited from earlier work
equine abortion virus = conditions: for Infected, Treated Surv/Total: 21 days observation; for Toxicity Control Surv/Total: twice daily for four days; for Survival Increase p: Fisher's exact test; for Infected, Treated Mean Survival Time: animals dying on or before day 21; for Mean Surv. Increase p: t test
[5] = test system: spectrum of virus infections; conditions: cited from earlier work
[6] = test system: Type 2 Herpes Simplex Virus; type: cell-based; conditions: cell culture, three days, VR >0.5 definite, <0.5 slight antiviral activity
[7] = eventually to uric acid; cited from earlier work

Structure (SMILES): O=c1[nH]c(=O)n([C@H]2C[C@H](O)[C@@H](CO)O2)cc1I [IDU, 5'-iodo-2'-deoxyuridine]
- maximum solubility [1]: about 0.1 weight percent
- solubility (in words) [1]: extremely low solubility

Structure (SMILES): O=c1[nH]cnc2c1ncn2[C@@H]1O[C@@H]2COP(=O)(O)O[C@H]2[C@@H]1O [9-β-D-Arabinofuranosylhypoxanthine-3' ,5'-cyclic phosphate]
- virus rating (VR) (Vaccinia Virus): 0.7
- virus rating (VR) [2]: 0.7-1.1

Structure (SMILES): Nc1ncnc2c1ncn2[C@@H]1O[C@H](CO)[C@@H](O)[C@@H]1O [9-β-D-Arabinofuranosyladenine, 9-β-D-arabinofuranosyladenine]
- solubility (in words) [1]: low solubility
- Percent Survivor Number Increase ([3]; 62.5 mg/kg/day i.p.): 0%
- Survivor Increase P ([3]; 62.5 mg/kg/day i.p.): > 0.03
- Percent Survivor Number Increase ([3]; 125 mg/kg/day i.p.): 30%
- Survivor Increase P ([3]; 125 mg/kg/day i.p.): < 0.05
- Percent Survivor Number Increase ([3]; 250 mg/kg/day i.p.): 40%
- Survivors/Total (Toxicity Controls) ([3]; 250 mg/kg/day i.p., twice daily for 8 days, 21 days observation): 5/5
- Survivor Increase P ([3]; 250 mg/kg/day i.p.): < 0.05
- effectiveness of ara-A compared with ara-IMP ([3]; i.p., Table II): less effective
- human toxic symptoms [4]: mild nausea, transient leukopenia and central nervous system involvement which causes illusions and hallucinations
- Infected, Treated Surv/Total (equine abortion virus; Expt. 1, 125 mg/kg/day i.p.): 8/9
- Toxicity Control Surv/Total (equine abortion virus; Expt. 1, 125 mg/kg/day i.p.): 2/2
- Survival Increase p (equine abortion virus; Expt. 1, 125 mg/kg/day i.p.): < 0.001
- Infected, Treated Mean Survival Time (equine abortion virus; Expt. 1, 125 mg/kg/day i.p.): 13 days
- Infected, Treated Surv/Total (equine abortion virus; Expt. 1, 250 mg/kg/day i.p.): 0.8
- Toxicity Control Surv/Total (equine abortion virus; Expt. 1, 250 mg/kg/day i.p.): 2/3
- Infected, Treated Mean Survival Time (equine abortion virus; Expt. 1, 250 mg/kg/day i.p.): 9.2 days
- Mean Surv. Increase p (equine abortion virus; Expt. 1, 250 mg/kg/day i.p.): < 0.001
- Infected, Treated Surv/Total (equine abortion virus; Expt. 2, 62.5 mg/kg/day i.p.): 10/10
- Survival Increase p (equine abortion virus; Expt. 2, 62.5 mg/kg/day i.p.): < 0.001
- Infected, Treated Mean Survival Time (equine abortion virus; Expt. 2, 62.5 mg/kg/day i.p.): > 21 days
- Mean Surv. Increase p (equine abortion virus; Expt. 2, 62.5 mg/kg/day i.p.): < 0.001
- Infected, Treated Surv/Total (equine abortion virus; Expt. 2, 250 mg/kg/day i.p.): 3/10
- Toxicity Control Surv/Total (equine abortion virus; Expt. 2, 250 mg/kg/day i.p.): 2/3
- Survival Increase p (equine abortion virus; Expt. 2, 250 mg/kg/day i.p.): 0.09
- Infected, Treated Mean Survival Time (equine abortion virus; Expt. 2, 250 mg/kg/day i.p.): 12 days
- Mean Surv. Increase p (equine abortion virus; Expt. 2, 250 mg/kg/day i.p.): < 0.001
- reported antiviral effectiveness [5]: effective agent against a spectrum of virus infections

Structure (SMILES): O=c1c2ncn([C@@H]3O[C@H](COP(=O)(O)O)[C@@H](O)[C@@H]3O)c2ncn1O [9-β-D-Arabinofuranosyl-N^1-hydroxyhypoxanthine-5'-phosphate]
- virus rating (VR) [6]: 0.0-0.6
- virus rating (VR) (Vaccinia Virus): 0.1-0.4
- virus rating (VR) [2]: 0.2-0.7

Structure (SMILES): O=c1[nH]cnc2c1ncn2[C@@H]1O[C@H](CO)[C@@H](OP(=O)(O)O)[C@@H]1O [9-β-D-Arabinofuranosylhypoxanthine-3'-phosphate]
- virus rating (VR) [2]: 1.0

Structure (SMILES): Nc1ncnc2c1ncn2[C@@H]1O[C@H](COP(=O)(O)O)[C@@H](O)[C@@H]1O [9-β-D-arabinofuranosyladenine-5'-phosphate]
- virus rating (VR) [2]: 1.3
- metabolic degradation [7]: rapidly degraded in the metabolic system (eventually to uric acid)

Structure (SMILES): COP(=O)(O)OC[C@H]1O[C@@H](n2cnc3c(=O)[nH]cnc32)[C@@H](O)[C@@H]1O [9-β-D-Arabinofuranosylhypoxanthine-5'-O-methylphosphate]
- virus rating (VR) [6]: 0.0
- virus rating (VR) (Vaccinia Virus): 0.4
- virus rating (VR) [2]: 0.4-0.7
